Test results from PMC11110238, “Synthesis of novel carbazole hydrazine-carbothioamide scaffold as potent antioxidant, anticancer and antimicrobial agents” (BMC Chemistry, 2024).

What was measured:
[1] = DPPH radical scavenging assay; type: biochemical; conditions: 30 min, 517 nm
Experimental: To estimate the Carbazole derivatives' antioxidant potential, a solution of each compound (1 mM/mL) in methanol was serially diluted with methanol to obtain a concentration of 1, 2, 5, 10, 20, 50, and 100 µM/mL. Then, DPPH (2,2-diphenyl-1-picrylhydrazyl) reagent (Sigma, USA) was dissolved in 0.002% w/v methanol and mixed with the previously prepared working concentrations in a 1:1 ratio. The same procedures were repeated for Trolox (Sigma-Aldrich, Denmark), which was used as a positive control. All of the solutions were kept in the dark chamber for 30 min at an ordinary temperature. Then, their absorbance values were measured at a wavelength of 517 nm utilizing a UV–visible spectrophotometer. The DPPH inhibition potentials by Carbazole derivatives and Trolox were determined employing the following equation: DPPH inhibition(\%)=abs(blank)-abs(sample)/abs(blank)∗100\% where absblank is the blank absorbance and abssample is the absorbance of the samples [58]. The antioxidant half-maximal inhibitory concentration (IC50) of the synthesized carbazole derivatives and Trolox were assessed by using an online tool “Quest Graph™ IC50 Calculator.” AAT Bioquest, Inc., 25 May. 2023, https://www.aatbio.com/tools/ic50-calculator.

MCF-7 cell line = experiment: MTT cell viability, MCF-7 cancer cell line; type: cell-based; conditions: Homo sapiens, MCF7; MTT, 48 h; read-out: IC50 values Carbazole Derivatives Effect on MCF-7 Cell Line
Experimental: MCF-7 cancer cell lines were cultured at Dulbecco’s Modified Eagle Medium High Glucose (DMEM) (EuroClone, Via Figino, Italy); fetal bovine serum (FBS) and MTT (3-(4,5-Dimethylthiazol-2-yl)-2,5-Diphenyl Tetrazolium Bromide) were provided by Sigma-Aldrich (Darmstadt, Germany); ApopNexin Annexin-V-FITC with PI Apoptosis Kit was obtained from Merck (Darmstadt, Germany); Total RNA Isolation Kit was provided by Analytic Jena (Jena, Germany), SensiFast cDNA Synthesis Kit was provided by Meridian Bioscience (Cincinati, USA), SybrGreen Master Mix was obtained from EuroClone (Via Figino, Italy).
Cells (MCF-7 and L929) were incubated in 75 cm^2 sterile flasks with 10% FBS, 100 U/mL penicillin, and 100 µg/mL streptomycin. The cells were grown at 37 ^○C in 5% CO2, and MTT was used to screen the viability of the cells. Cells were seeded at a density of 10^4 cells per well. The cells were then cultured for 24 h in 100 µl of DMEM complete medium. After pretreatment with different concentrations of the compounds for 48 h, 10 µl of 5 mg/mL MTT solution was added to each well and incubated for 4 h at 37 ^○C, and 100 µl of DMSO was used in each well to dissolve the blue formazan crystals. Then, the absorbance was measured at 570 nm. The cell viability percentages of compound 4o against MCF-7 cancer cell lines and L929 normal cell lines were presented in Fig. 2 in comparison with doxorubicin anticancer agent.

Row | SMILES | IC50 [1] [µM] | IC50 (MCF-7 cell line) [µM] | melting point [°C]
1 | O=C(Cn1c2ccccc2c2ccccc21)NNC(=S)Nc1ccccc1 [Compound 4a, 2-(2-(9H-carbazol-9-yl)acetyl)-N-phenylhydrazine-1-carbothioamide] | 52.1 ± 2.42 | > 20 | 235 to 237
2 | COc1cccc(NC(=S)NNC(=O)Cn2c3ccccc3c3ccccc32)c1 [Compound 4b, 2-(2-(9H-carbazol-9-yl)acetyl)-N-(3-methoxyphenyl)hydrazine-1-carbothioamide] | 5.15 ± 1.02 | > 20 | 218 to 220
3 | O=C(Cn1c2ccccc2c2ccccc21)NNC(=S)NCCCN1CCOCC1 [Compound 4c, 2-(2-(9H-carbazol-9-yl)acetyl)-N-(3-morpholinopropyl)hydrazine-1-carbothioamide] | 8.99 ± 2.17 | > 20 | 189 to 191
4 | O=C(Cn1c2ccccc2c2ccccc21)NNC(=S)Nc1cccc2ccccc12 [Compound 4d, 2-(2-(9H-carbazol-9-yl)acetyl)-N-(naphthalen-1-yl)hydrazine-1-carbothioamide] | 29.7 ± 1.77 | > 20 | 222 to 224
5 | O=C(Cn1c2ccccc2c2ccccc21)NNC(=S)Nc1ccc([N+](=O)[O-])cc1 [Compound 4e, 2-(2-(9H-carbazol-9-yl)acetyl)-N-(4-nitrophenyl)hydrazine-1-carbothioamide] | 50.8 ± 1.88 | > 20 | 235 to 237
6 | COc1ccc(NC(=S)NNC(=O)Cn2c3ccccc3c3ccccc32)cc1 [Compound 4f, 2-(2-(9H-carbazol-9-yl)acetyl)-N-(4-methoxyphenyl)hydrazine-1-carbothioamide] | 3.41 ± 1.05 | > 20 | 210 to 212
7 | O=C(Cn1c2ccccc2c2ccccc21)NNC(=S)Nc1ccc(Br)cc1 [Compound 4g, 2-(2-(9H-carbazol-9-yl)acetyl)-N-(4-bromophenyl)hydrazine-1-carbothioamide] | 4.14 ± 0.75 | > 20 | 255 to 257
8 | O=C(Cn1c2ccccc2c2ccccc21)NNC(=S)Nc1ccc(Cl)cc1 [Compound 4h, 2-(2-(9H-carbazol-9-yl)acetyl)-N-(4-chlorophenyl)hydrazine-1-carbothioamide] | 0.73 ± 0.54 | > 20 | 235 to 237
9 | O=C(Cn1c2ccccc2c2ccccc21)NNC(=S)Nc1ccc(C(F)(F)F)cc1 [Compound 4k, 2-(2-(9H-carbazol-9-yl)acetyl)-N-(4-(trifluoromethyl)phenyl)hydrazine-1-carbothioamide] | 2.08 ± 0.72 | > 20 | 177 to 179

The remaining lines, values ahead:

Row | IC50 [1] [µM] | IC50 (MCF-7 cell line) [µM] | melting point [°C] | SMILES
10 | 2.37 ± 1.7 | > 20 | 211 to 213 | O=C(Cn1c2ccccc2c2ccccc21)NNC(=S)NC1CCCCC1 [Compound 4m, 2-(2-(9H-carbazol-9-yl)acetyl)-N-cyclohexylhydrazine-1-carbothioamide]
11 | 1.52 ± 0.58 | > 20 | 180 to 182 | Cc1ccc(NC(=S)NNC(=O)Cn2c3ccccc3c3ccccc32)cc1 [Compound 4n, 2-(2-(9H-carbazol-9-yl)acetyl)-N-(p-tolyl)hydrazine-1-carbothioamide]
12 | 10.2 ± 1.85 | > 20 | 169 to 171 | O=C(Cn1c2ccccc2c2ccccc21)NNC(=S)NCc1ccccc1 [Compound 4p, 2-(2-(9H-carbazol-9-yl)acetyl)-N-benzylhydrazine-1-carbothioamide]
13 | 19.9 ± 1.55 | 4.99 ± 0.42 | 199 to 201 | O=C(Cn1c2ccccc2c2ccccc21)NNC(=S)NC1CC2CCC1C2 (stereo not shown) [Compound 4r, 2-(2-(9H-carbazol-9-yl)acetyl)-N-(bicyclo[2.2.1]heptan-2-yl)hydrazine-1-carbothioamide]
14 | 7.71 ± 1.47 | – | – | Cc1c(C)c2c(c(C)c1O)CCC(C)(C(=O)O)O2 (stereo not shown) [Trolox, reference compound]
